Laboratory results from ChEMBL document CHEMBL1201862, “PubChem BioAssay data set” (2004).
Calls of active or inactive are those of the source.

What was measured:
[1] = molecular target: Lysine-specific demethylase 4C (Homo sapiens, UniProt Q9H3R0); assay: GASC-1 (JMJD2C) histone demethylase inhibitors, dose response, biochemical, DELFIA europium, cherry-picked samples (AID 488835); format: functional
[2] = NIH-3T3 fibroblast cytotoxicity, dose response, cytotoxicity control, cell-based, fluorescence, Alamar Blue, secondary assay (AID 2327); format: functional;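 further: NIH-3T3 mouse fibroblasts cultured with fluconazole at 8 µg/mL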
[3] = inhibitors of firefly luciferase expression or activity, dose response, H4 neuroglioma cells, luminescence (AID 1990); format: functional, cell-based
[4] = Luminescence Cell-Based Dose Response HTS to Identify Inhibitors of 5'UTR Stem-Loop Driven Prion Protein mRNA Translation in H4 Neuroglioblastoma Cells. [Related pubchem assays: 1827 (Project Summary), 1813 (Primary HTS)]; format: functional
[5] = inhibitors of SNCA 5'UTR-driven reporter translation, confirmation, H4 neuroglioma cells, luminescence (AID 1988); format: functional, cell-based
[6] = C. albicans growth with fluconazole, confirmation, fluorescence, retest (AID 2467); format: functional, cell-based
[7] = molecular target: Bifunctional protein GlmU (Mycobacterium tuberculosis, UniProt P9WMN3); assay: Inhibitors of Mycobacterial Glucosamine-1-phosphate acetyl transferase (GlmU). Secondary screen.; design: species or system Mycobacterium tuberculosis H37Rv
[8] = molecular target: Induced myeloid leukemia cell differentiation protein Mcl-1 (Homo sapiens, UniProt Q07820); format: functional
[9] = molecular target: T1, Replicative DNA helicase DnaB (Mycobacterium tuberculosis, UniProt P9WMR3); assay: DnaB intein splicing inhibitors, dose response, biochemical, cell-free fluorescence (AID 449749); format: functional
T1 sequence (P9WMR3 whole entry): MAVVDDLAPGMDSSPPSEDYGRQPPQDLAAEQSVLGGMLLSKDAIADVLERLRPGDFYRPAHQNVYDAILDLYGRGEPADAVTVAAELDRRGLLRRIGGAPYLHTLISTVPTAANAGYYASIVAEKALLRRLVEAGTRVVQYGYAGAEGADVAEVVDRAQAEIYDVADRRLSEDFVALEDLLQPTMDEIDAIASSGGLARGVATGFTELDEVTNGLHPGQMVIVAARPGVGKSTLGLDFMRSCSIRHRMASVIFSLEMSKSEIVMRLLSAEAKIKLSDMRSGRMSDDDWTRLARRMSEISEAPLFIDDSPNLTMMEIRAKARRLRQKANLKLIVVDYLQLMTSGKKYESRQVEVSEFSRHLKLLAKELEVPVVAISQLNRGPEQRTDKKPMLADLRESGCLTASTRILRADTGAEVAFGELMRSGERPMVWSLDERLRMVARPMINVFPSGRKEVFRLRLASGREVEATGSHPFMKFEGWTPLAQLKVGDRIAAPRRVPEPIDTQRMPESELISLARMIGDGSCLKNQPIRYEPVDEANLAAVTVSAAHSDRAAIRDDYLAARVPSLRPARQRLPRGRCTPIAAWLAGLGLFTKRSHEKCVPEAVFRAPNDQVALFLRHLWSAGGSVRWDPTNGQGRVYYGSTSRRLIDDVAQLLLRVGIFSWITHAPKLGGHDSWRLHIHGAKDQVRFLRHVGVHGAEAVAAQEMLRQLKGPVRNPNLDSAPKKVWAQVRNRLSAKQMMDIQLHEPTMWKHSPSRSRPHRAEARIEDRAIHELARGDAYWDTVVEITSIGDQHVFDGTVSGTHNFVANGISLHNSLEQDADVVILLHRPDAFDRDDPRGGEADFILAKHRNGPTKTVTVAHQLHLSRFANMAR

[10] = molecular target: T2, Protein RecA (Mycobacterium tuberculosis, UniProt P9WHJ3); assay: Fluorescence Cell-Free Homogeneous Dose Retest to Identify Inhibitors of RecA-Intein Splicing Activity. [Related pubchem assays (depositor defined):AID2097, AID2223, AID489010, AID492950]; format: functional
T2 sequence (P9WHJ3 whole entry): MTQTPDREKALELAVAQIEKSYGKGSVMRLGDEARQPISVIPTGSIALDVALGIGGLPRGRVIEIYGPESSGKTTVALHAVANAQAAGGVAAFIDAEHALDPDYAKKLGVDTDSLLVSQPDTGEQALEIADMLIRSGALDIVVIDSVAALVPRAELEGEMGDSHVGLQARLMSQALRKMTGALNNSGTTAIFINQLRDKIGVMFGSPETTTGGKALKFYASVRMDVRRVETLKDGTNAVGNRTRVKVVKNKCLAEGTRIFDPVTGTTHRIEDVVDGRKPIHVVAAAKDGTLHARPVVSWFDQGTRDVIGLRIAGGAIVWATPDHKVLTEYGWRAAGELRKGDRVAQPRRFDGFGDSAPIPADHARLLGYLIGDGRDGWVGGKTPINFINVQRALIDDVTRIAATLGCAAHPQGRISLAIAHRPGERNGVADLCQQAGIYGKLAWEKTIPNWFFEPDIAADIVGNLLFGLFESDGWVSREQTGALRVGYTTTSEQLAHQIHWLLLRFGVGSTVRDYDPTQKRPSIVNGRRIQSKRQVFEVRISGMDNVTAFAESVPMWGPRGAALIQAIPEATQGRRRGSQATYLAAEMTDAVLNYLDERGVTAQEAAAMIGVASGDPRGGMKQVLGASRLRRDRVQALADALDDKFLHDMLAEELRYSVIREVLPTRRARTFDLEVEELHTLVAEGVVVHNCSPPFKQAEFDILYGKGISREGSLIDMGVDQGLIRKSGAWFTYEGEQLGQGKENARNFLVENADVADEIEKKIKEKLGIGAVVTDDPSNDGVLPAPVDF

[11] = tested on: INS1; assay: beta cell apoptosis inhibitors, cytokine rescue, dose response, luminescence, retest (AID 449756); format: functional, cell-based; settings: Rattus norvegicus;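 further: cell death triggered by IL-1 beta plus TNF-alpha plus IFN-gamma mixture; protective hits raise ATP signal compared with cytokine alone wells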
[12] = molecular target: T3, Caspase-6 (Homo sapiens, UniProt P55212); assay: human caspase-6 inhibitors, dose response, biochemical, VEID-R110 fluorescence, cherry-pick (AID 720632)
T3 sequence (P55212 whole entry): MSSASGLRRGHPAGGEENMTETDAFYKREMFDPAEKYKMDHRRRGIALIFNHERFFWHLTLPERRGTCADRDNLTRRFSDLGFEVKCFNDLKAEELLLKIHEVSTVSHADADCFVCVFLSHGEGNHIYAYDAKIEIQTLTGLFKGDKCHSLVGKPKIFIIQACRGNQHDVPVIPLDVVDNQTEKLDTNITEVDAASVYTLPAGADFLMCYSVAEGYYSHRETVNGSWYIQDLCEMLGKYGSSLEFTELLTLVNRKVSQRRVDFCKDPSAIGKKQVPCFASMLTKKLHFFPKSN

[13] = molecular target: Cytochrome P450 2C19 (Homo sapiens, UniProt P33261); assay: Cytochrome panel assay with activity outcomes. Panel member name: p450-cyp2c19 Compounds with AC50 equal or less than 10 uM are considered active; format: functional; settings: read-out: AC50
[14] = molecular target: T4, Cytochrome P450 1A2 (Homo sapiens, UniProt P05177);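 further: PubChem cytochrome P450 panel assay, CYP1A2 panel member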
T4 sequence (P05177 whole entry): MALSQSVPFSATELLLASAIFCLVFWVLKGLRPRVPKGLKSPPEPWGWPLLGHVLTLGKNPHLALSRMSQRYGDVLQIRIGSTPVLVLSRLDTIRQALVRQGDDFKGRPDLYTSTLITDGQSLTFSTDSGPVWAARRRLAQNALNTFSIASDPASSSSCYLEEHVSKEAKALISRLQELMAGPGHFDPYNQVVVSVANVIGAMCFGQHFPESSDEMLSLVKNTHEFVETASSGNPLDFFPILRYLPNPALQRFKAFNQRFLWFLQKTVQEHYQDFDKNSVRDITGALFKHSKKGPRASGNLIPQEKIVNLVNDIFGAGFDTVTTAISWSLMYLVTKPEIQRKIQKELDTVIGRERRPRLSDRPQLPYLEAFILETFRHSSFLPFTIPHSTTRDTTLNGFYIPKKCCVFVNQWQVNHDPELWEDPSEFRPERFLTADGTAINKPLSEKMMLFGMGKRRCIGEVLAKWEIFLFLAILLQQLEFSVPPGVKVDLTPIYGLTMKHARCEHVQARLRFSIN

[15] = molecular target: Cytochrome P450 2D6 (Homo sapiens, UniProt P10635);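 further: CYP2D6 member of a cytochrome P450 panel assay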
[16] = A cytotoxicity screen of small molecule inhibitors of the PhoP region in Salmonella typhi identified in the primary screen. [Related pubchem assays: 1850, 1864, 1985 ]; format: functional
[17] = molecular target: Exodeoxyribonuclease V (Escherichia coli (strain K12), UniProt P04993+P07648+P08394); assay: E. coli RecBCD inhibitors, dose response, counter-screen for AddAB inhibitor project, absorbance, V66 E. coli, mutant T4 phage (AID 492957); format: functional, cell-based, Escherichia coli str. K-12 substr. MG1655
[18] = Counterscreen for AddAB inhibitors: absorbance-based bacterial cell-based high throughput dose response assay for inhibitors of bacterial viability. [Related pubchem assays (depositor defined):AID435030, AID449728, AID449731, AID488942, AID488955, AID488956]; format: functional
[19] = molecular target: T5, Apoptotic protease-activating factor 1 (Homo sapiens, UniProt O14727); format: functional
T5 sequence (O14727 whole entry): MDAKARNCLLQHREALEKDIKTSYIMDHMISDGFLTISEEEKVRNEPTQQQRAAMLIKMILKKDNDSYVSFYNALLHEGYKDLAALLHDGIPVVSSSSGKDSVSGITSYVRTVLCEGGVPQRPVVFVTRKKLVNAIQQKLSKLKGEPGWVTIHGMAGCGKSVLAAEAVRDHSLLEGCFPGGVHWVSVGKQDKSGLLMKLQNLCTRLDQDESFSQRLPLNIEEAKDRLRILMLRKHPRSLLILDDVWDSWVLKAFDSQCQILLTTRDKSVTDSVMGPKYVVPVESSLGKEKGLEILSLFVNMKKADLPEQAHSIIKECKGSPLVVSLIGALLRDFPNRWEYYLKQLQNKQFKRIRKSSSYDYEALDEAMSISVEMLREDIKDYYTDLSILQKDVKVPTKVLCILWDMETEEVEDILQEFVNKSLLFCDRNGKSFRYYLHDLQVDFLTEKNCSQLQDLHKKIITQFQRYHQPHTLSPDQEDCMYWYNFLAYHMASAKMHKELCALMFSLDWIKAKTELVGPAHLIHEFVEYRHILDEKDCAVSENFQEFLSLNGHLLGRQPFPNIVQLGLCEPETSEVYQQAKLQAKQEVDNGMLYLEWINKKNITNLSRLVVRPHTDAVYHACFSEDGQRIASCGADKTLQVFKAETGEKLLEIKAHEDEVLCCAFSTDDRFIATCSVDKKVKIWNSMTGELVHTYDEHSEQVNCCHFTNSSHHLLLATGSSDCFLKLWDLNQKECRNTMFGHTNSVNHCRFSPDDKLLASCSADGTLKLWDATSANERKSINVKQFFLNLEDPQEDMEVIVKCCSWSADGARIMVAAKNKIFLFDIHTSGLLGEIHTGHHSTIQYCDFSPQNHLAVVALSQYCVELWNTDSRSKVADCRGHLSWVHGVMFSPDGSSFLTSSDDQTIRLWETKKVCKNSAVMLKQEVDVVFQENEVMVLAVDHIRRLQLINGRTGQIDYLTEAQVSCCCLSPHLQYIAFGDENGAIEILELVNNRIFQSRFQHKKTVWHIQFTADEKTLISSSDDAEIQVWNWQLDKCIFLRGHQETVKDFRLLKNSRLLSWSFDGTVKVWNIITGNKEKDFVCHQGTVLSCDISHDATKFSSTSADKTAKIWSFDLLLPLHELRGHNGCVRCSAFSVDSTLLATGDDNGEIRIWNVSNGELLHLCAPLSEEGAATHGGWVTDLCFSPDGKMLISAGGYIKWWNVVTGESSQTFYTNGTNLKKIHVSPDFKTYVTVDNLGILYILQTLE

[20] = molecular target: Cytochrome P450 2C9 (Homo sapiens, UniProt P11712)
[21] = cells; format: functional, cell-based
[22] = cells; format: functional, cell-based; remark: listed apart in the source
[23] = molecular target: Galanin receptor type 3 (Homo sapiens, UniProt O60755); assay: Fluorescence-based cell-based primary high throughput dose response assay to identify antagonists of the Galanin Receptor 3 (GalR3).; format: functional
[24] = cells; format: functional, cell-based; settings: HEK-CNG

Sequence of Cytochrome P450 2C19 (P33261 whole entry): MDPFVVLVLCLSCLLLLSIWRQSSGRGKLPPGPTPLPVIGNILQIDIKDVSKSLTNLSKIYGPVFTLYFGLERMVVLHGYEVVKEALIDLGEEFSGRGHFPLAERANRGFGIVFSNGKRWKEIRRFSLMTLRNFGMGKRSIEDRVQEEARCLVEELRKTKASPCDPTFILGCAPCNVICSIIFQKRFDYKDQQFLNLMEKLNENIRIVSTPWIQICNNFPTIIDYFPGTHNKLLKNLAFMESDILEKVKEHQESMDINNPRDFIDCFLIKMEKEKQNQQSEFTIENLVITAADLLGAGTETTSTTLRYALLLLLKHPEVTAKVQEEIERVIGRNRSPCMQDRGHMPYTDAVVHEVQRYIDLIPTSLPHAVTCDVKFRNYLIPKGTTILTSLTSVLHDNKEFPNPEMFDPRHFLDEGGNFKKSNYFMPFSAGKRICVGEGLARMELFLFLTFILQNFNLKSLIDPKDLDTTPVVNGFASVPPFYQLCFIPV
Sequence of Exodeoxyribonuclease V (P04993 whole entry): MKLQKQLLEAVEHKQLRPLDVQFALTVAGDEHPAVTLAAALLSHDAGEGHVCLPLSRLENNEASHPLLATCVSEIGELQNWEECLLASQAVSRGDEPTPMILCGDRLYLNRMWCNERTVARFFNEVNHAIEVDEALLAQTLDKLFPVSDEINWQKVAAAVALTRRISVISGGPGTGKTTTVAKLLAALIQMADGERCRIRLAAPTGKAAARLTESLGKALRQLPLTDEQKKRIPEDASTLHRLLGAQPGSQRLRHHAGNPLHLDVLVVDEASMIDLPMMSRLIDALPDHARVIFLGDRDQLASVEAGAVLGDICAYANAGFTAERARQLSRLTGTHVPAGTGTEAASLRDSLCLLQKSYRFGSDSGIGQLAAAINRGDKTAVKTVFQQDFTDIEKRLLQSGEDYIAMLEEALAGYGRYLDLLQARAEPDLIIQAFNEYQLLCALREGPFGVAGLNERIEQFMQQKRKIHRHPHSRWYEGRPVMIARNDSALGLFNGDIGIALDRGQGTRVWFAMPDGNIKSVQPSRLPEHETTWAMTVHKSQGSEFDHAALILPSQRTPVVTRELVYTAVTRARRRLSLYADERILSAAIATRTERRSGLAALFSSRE
Sequence of Exodeoxyribonuclease V (P07648 whole entry): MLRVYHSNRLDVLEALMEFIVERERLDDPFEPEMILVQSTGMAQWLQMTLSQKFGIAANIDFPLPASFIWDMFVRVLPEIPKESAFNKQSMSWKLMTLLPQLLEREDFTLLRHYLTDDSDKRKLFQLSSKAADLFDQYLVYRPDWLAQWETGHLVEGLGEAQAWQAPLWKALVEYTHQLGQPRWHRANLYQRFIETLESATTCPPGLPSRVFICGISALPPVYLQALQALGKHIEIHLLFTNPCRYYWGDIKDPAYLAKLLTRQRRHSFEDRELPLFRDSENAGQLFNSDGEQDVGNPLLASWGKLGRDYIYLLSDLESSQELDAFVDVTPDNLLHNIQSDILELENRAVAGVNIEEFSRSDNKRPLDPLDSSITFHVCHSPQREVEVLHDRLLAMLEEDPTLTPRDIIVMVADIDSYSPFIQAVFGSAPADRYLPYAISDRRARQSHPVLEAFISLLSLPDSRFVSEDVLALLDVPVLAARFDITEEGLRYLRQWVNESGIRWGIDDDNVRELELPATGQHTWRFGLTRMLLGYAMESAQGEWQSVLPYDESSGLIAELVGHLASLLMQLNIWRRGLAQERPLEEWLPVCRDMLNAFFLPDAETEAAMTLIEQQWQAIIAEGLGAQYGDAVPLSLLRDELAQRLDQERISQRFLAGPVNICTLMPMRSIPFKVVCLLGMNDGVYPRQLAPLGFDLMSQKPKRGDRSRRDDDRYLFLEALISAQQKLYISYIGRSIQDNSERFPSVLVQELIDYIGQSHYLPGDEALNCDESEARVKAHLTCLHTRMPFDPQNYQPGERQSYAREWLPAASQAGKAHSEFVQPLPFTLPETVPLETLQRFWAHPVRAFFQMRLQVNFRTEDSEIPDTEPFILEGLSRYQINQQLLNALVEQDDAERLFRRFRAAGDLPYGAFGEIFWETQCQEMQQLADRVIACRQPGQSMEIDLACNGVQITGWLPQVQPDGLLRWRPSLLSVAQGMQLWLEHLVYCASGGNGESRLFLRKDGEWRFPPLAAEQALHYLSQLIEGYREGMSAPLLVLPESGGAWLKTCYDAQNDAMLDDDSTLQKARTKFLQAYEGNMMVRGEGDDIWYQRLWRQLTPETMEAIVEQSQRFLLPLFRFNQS
Sequence of Exodeoxyribonuclease V (P08394 whole entry): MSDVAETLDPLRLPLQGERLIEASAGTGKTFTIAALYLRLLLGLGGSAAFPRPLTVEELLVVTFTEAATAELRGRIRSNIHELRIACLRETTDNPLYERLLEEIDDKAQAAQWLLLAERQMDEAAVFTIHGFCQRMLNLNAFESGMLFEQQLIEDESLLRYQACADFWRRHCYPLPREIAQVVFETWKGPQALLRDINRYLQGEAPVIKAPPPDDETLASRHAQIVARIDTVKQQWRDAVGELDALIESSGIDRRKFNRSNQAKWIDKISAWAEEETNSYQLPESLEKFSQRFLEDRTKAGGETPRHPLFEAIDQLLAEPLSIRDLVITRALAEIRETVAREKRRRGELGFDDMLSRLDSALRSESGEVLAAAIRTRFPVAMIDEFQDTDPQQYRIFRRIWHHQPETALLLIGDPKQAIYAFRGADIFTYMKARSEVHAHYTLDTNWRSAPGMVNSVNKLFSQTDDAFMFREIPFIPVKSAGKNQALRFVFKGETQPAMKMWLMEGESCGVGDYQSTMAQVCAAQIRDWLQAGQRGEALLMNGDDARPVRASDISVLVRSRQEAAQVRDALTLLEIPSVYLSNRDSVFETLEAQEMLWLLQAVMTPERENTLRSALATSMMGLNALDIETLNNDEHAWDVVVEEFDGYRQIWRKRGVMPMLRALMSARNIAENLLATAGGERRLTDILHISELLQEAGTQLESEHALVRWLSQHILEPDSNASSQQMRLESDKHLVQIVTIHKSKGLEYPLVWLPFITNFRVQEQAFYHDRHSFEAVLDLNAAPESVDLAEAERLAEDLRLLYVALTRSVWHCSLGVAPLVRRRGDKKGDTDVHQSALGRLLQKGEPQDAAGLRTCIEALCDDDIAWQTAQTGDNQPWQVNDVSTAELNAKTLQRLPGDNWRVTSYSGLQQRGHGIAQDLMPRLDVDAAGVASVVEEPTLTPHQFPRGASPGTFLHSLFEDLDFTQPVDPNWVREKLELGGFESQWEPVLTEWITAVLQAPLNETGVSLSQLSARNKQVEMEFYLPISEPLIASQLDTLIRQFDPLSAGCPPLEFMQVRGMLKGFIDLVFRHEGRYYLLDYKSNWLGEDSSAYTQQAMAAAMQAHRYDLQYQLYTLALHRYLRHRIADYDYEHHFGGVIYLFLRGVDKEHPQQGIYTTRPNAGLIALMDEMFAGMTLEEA
Sequence of Lysine-specific demethylase 4C (Q9H3R0 whole entry): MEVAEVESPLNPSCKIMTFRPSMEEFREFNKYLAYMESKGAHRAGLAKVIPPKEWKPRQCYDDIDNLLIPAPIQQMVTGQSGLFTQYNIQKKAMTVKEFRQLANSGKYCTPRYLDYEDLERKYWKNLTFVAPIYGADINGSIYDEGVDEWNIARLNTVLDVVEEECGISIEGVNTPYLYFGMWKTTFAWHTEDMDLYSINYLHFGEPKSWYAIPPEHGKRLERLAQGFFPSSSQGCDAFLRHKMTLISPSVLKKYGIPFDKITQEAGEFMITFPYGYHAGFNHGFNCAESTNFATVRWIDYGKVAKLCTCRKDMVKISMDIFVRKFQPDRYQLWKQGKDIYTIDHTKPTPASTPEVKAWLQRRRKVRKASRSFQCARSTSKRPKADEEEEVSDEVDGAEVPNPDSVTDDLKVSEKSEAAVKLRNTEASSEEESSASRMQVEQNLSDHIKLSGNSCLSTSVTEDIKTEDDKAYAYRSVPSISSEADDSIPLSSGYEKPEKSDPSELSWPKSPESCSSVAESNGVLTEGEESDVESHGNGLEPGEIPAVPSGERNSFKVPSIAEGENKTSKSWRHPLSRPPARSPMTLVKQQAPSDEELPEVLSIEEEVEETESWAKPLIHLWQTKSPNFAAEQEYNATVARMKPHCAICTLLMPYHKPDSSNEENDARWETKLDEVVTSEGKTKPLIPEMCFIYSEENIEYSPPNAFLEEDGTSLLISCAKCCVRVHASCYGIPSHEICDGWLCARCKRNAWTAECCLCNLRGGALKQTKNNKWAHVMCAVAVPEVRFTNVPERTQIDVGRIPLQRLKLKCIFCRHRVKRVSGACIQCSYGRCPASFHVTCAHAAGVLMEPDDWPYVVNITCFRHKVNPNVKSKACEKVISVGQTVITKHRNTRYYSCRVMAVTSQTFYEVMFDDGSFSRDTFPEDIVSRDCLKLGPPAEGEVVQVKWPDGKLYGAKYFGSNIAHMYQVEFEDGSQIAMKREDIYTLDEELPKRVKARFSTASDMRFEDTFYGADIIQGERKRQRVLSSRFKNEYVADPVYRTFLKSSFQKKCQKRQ
Sequence of Cytochrome P450 2D6 (P10635 whole entry): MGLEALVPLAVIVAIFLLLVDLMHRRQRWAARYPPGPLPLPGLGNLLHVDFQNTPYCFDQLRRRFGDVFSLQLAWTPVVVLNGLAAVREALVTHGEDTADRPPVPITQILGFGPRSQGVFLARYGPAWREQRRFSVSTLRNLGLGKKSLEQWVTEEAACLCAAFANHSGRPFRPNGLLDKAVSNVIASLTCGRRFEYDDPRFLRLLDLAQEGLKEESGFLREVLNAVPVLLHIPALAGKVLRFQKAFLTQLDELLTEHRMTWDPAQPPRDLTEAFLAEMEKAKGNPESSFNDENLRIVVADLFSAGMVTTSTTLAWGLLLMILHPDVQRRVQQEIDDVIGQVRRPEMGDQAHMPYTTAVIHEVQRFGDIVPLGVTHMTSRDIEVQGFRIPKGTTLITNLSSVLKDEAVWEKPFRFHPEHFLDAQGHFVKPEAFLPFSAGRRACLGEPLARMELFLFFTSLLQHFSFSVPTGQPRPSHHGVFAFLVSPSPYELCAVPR

## Cc1ccc2c(c1)N(CC(=O)NCC1CCCO1)C(=O)C(C(C)C)O2 (stereo not given)
[1]
  AC50: 11.5 µM (active)

## O=[N+]([O-])c1cc(/C=N/Nc2nc3ccccc3[nH]2)c(O)cc1O
[2]
  EC50: > 150 µM (inactive)
[3]
  EC50: 9.68 µM (inconclusive)
[4]
  EC50: 11.2 µM (active)
[5]
  EC50: 3.81 µM (active)
[6]
  EC50: 2.33 µM (active)
[7]
  IC50: 125 µM (active)
[8]
  IC50: 6.08 µM (active)
[1]
  AC50: 3.07 µM (active)
[9]
  AC50: 4.22 µM (active)
[10]
  EC50: 6.73 µM (active)
[11]
  AC50: 0.483 µM (active)
[12]
  AC50: 5.37 µM (active)

## CCc1ccc(N2CC(C(=O)N/N=C/c3cccc([N+](=O)[O-])c3)CC2=O)cc1 (stereo not given)
[13]
  AC50: 0.316 µM (inconclusive)
[14]
  AC50: 3.16 µM (inconclusive)
[15]
  AC50: inconclusive

## CCCCNC1=CC(=O)C(=O)c2ccccc21
[16]
  EC50: > 50 µM (active)
[17]
  IC50: > 119 µM (inactive)
[18]
  IC50: > 39.5 µM (inactive)
[9]
  AC50: 0.575 µM (active)
[19]
  IC50: 6.49 µM (active)
[10]
  EC50: 0.669 µM (active)
[11]
  AC50: 1.78 µM (active)

## COc1ccc(C(=O)Nc2cccc(-c3cnc4ccccc4n3)c2)cc1
[13]
  AC50: 2.24 µM (inconclusive)
[20]
  AC50: 1.78 µM (inconclusive)
[15]
  AC50: inconclusive

## Nc1nonc1-n1nnc(C(=O)N/N=C/c2cc(Br)ccc2O)c1CSC1=NCCS1
[2]
  EC50: 5.49 µM (active)
[21]
  EC50: 12.6 µM (active)
[6]
  EC50: 0.299 µM (active)
[22]
  EC50: > 350 µM (not active)
[17]
  IC50: > 119 µM (inactive)
[18]
  IC50: > 119 µM (inactive)
[11]
  AC50: 0.567 µM (active)
[23]
  IC50: 1.24 µM (active)
[24]
  EC50: > 29.9 µM (inactive)
